The values below are quoted from earlier work in patent US5456909A, “Glycoform fractions of recombinant soluble complement receptor 1 (sCR1) having extended half-lives in vivo” (T Cell Sciences, Inc., priority 1992, dated 1995).

The data set relates to iC3. The conditions noted are these: produced in presence of tunicamycin; cited from earlier work.

In the case of “non-glycosylated form of CR1: non-glycosylated form of CR1 produced in the presence of tunicamycin”, the “binding to iC3” value is “reduced binding to iC3”.
